Results: patent US7964531B2, “3-phenoxy-4-pyridazinol derivatives and herbicidal composition containing the same” (Mitsui Chemicals Agro, Inc., priority 2001, dated 2011)

Row | melting point [°C] | SMILES
1 | 119 to 121 | CCN(CC)C(=O)Oc1cc(Cl)nnc1Oc1c(C)cccc1C1CC1
2 | 91.5 to 92 | Cc1ccccc1Oc1nnc(Cl)cc1OS(=O)(=O)c1ccccc1 [Compound No. 2147, 6-Chloro-3-(2-methylphenoxy)-4-pyridazinyl benzenesulfonate]
3 | 215 to 217 | Oc1cc(Cl)nnc1Oc1ccccc1-c1nc2ccccc2s1 [Compound No. 376, 3-[2-(1,3-Benzothiazol-2-yl)phenoxy]-6-chloro-4-pyridazinol]
4 | 63 to 64 | Cc1ccccc1C(=O)Oc1cc(Cl)nnc1Oc1cccc(C(C)(C)C)c1 [Compound No. 1457, 3-(3-tert-Butylphenoxy)-6-chloro-4-pyridazinyl 2-methylbenzoate]
5 | 187 to 195 | Oc1cc(Cl)nnc1Oc1cccc(Cl)c1F [Compound No. 438, 6-Chloro-3-(3-chloro-2-fluorophenoxy)-4-pyridazinol]
6 | 205 to 209 | CC(C)c1cccc([N+](=O)[O-])c1Oc1nnc(Cl)cc1O [Compound No. 911, 6-Chloro-3-(2-isopropyl-6-nitrophenoxy)-4-pyridazinol]
7 | 190 to 192 | N#C/C=C/c1ccccc1Oc1nnc(Cl)cc1O [Compound No. 306, (2E)-3-{2-[(6-Chloro-4-hydroxy-3-pyridazinyl)oxy]phenyl}acrylonitrile]
8 | 174 to 179 | CCOc1cccc(C2CC2)c1Oc1nnc(Cl)cc1O [Compound No. 965, 6-Chloro-3-(2-cyclopropyl-6-ethoxyphenoxy)-4-pyridazinol]
9 | 112 to 115 | Cc1cccc(C2CC2)c1Oc1nnc(Cl)cc1OC(=O)C(C)(C)CCl [Compound No. 2703, 6-Chloro-3-(2-cyclopropyl-6-methylphenoxy)-4-pyridazinyl 3-chloro-2,2-dimethylpropanoate]
10 | 165 to 168 | Oc1cc(Cl)nnc1Oc1ccccc1CC1CC1 [Compound No. 311, 6-Chloro-3-[2-(cyclopropylmethyl)phenoxy]-4-pyridazinol]
11 | 98 to 99 | Cc1ccc(S(=O)(=O)Oc2cc(Cl)nnc2Oc2ccccc2C(C)(C)C)cc1 [Compound No. 2224, 3-(2-tert-Butylphenoxy)-6-chloro-4-pyridazinyl 4-methylbenzenesulfonate]
12 | 153 to 157 | COc1ccccc1Oc1nnc(Cl)cc1OS(=O)(=O)c1ccc(C)cc1 [Compound No. 2232, 6-Chloro-3-(2-methoxyphenoxy)-4-pyridazinyl 4-methylbenzenesulfonate]
13 | 185 to 187 | Oc1cc(Cl)nnc1Oc1ccccc1Cc1ccccc1 [Compound No. 315, 3-(2-Benzylphenoxy)-6-chloro-4-pyridazinol]
14 | 174 to 180 | Cc1ccc(Cl)cc1Oc1nnc(Cl)cc1O [Compound No. 618, 6-Chloro-3-(5-chloro-2-methylphenoxy)-4-pyridazinol]
15 | 215 to 220 | CC(C)c1cccc(F)c1Oc1nnc(Cl)cc1O [Compound No. 717, 6-Chloro-3-(2-fluoro-6-isopropylphenoxy)-4-pyridazinol]
16 | 197 to 199 | CC1(C)Cc2c(Oc3nnc(Cl)cc3O)cccc21 [Compound No. 2556, 6-Chloro-3-[(7,7-dimethylbicyclo[4.2.0]octa-1,3,5-trien-2-yl)oxy]-4-pyridazinol]
17 | 140 to 143 | Cc1c([N+](=O)[O-])ccc(C2CC2)c1Oc1nnc(Cl)cc1O [Compound No. 2589, 6-Chloro-3-(6-cyclopropyl-2-methyl-3-nitrophenoxy)-4-pyridazinol]
18 | 158 to 159 | Oc1cc(Cl)nnc1Oc1ccccc1C1CCCCC1 [Compound No. 293, 6-Chloro-3-(2-cyclohexylphenoxy)-4-pyridazinol]

Row | melting point [°C] | SMILES
19 | 187 to 191 | COc1ccc(F)cc1Oc1nnc(Cl)cc1O [Compound No. 700, 6-Chloro-3-(5-fluoro-2-methoxyphenoxy)-4-pyridazinol]
20 | 209 to 213 | Oc1cc(Cl)nnc1Oc1c(F)cccc1F [Compound No. 710, 6-Chloro-3-(2,6-difluorophenoxy)-4-pyridazinol]
21 | 98 to 100 | Oc1cc(Cl)nnc1Oc1ccccc1-c1ccccc1 [Compound No. 344, 3-([1,1′-Biphenyl]-2-yloxy)-6-chloro-4-pyridazinol]
22 | 197 to 198 | Cc1ccccc1Oc1nnc(Br)cc1O [Compound No. 2411, 6-Bromo-3-(2-methylphenoxy)-4-pyridazinol]
23 | 201 to 202 | Cc1cccc(C2CC2)c1Oc1nnc(Cl)cc1O
24 | 200 to 202 | Oc1cc(Cl)nnc1Oc1cccc(-c2ccco2)c1 [Compound No. 419, 6-Chloro-3-[3-(2-furyl)phenoxy]-4-pyridazinol]
25 | 230 to 231 | CC(C)(C)c1cccc(C2CC2)c1Oc1nnc(Cl)cc1O [Compound No. 914, 3-(2-tert-Butyl-6-cyclopropylphenoxy)-6-chloro-4-pyridazinol]
26 | 65 to 66 | CCC(C)c1ccccc1Oc1nnc(Cl)cc1OS(=O)(=O)c1ccc(C)cc1 (stereo not drawn) [Compound No. 2223, 3-(2-s-Butylphenoxy)-6-chloro-4-pyridazinyl 4-methylbenzenesulfonate]
27 | 143 to 145 | Oc1cc(Cl)nnc1Oc1ccccc1C1OCCO1 [Compound No. 329, 6-Chloro-3-[2-(1,3-dioxolan-2-yl)phenoxy]-4-pyridazinol]
28 | 214 to 215 | Cc1ccccc1Oc1nnc(C2CC2)cc1O [Compound No. 2423, 6-Cyclopropyl-3-(2-methylphenoxy)-4-pyridazinol]
29 | 217 to 219 | O=[N+]([O-])c1cccc(Oc2nnc(Cl)cc2O)c1 [Compound No. 424, 6-Chloro-3-(3-nitrophenoxy)-4-pyridazinol]
30 | 105 to 108 | Cc1ccc(C(=O)Oc2cc(Cl)nnc2Oc2ccccc2C)cc1 [Compound No. 1553, 6-Chloro-3-(2-methylphenoxy)-4-pyridazinyl 4-methylbenzoate]
31 | 201 to 202 | Oc1cc(Cl)nnc1Oc1cccc2ccoc12 [Compound No. 541, 3-(1-Benzofuran-7-yloxy)-6-chloro-4-pyridazinol]
32 | 213 to 214 | CSc1c(C)cc(C)cc1Oc1nnc(Cl)cc1O [Compound No. 1027, 6-Chloro-3-[3,5-dimethyl-2-(methylsulfanyl)phenoxy]-4-pyridazinol]
33 | 117 to 119 | Cc1cc(C)cc(C(=O)Oc2cc(Cl)nnc2Oc2c(C)cccc2C2CC2)c1 [Compound No. 3243, 6-Chloro-3-(2-cyclopropyl-6-methylphenoxy)-4-pyridazinyl 3,5-dimethylbenzoate]
34 | 179 to 181 | Oc1cc(Cl)nnc1Oc1cccc(C2CC2)c1 [Compound No. 417, 6-Chloro-3-(3-cyclopropylphenoxy)-4-pyridazinol]
35 | 165 to 167 | CON=C(C)c1ccccc1Oc1nnc(Cl)cc1O [Compound No. 334, 1-{2-[(6-Chloro-4-hydroxy-3-pyridazinyl)oxy]phenyl}ethanone O-methyloxime]

Row | SMILES | melting point [°C]
36 | Oc1cc(Cl)nnc1Oc1cccc2c1CC1CC21 (stereo not drawn) [Compound No. 516, 3-(1,1a,6,6a-Tetrahydrocyclopropa[a]inden-5-yloxy)-6-chloro-4-pyridazinol] | 211 to 213
